Test results from PubChem BioAssay AID330 (DTP/NCI, 2004).
Several values for one entry are separate records, joined by “and”; a condition that tells them apart may be missing. Identical values can stand only once. Toxic doses and inconclusive results are not listed. Peptide text beside a SMILES is read from it. * marks the point of attachment. Cbz = O=C(OCc1ccccc1)*

Test system: P388 leukemia ip, CD2F1 mice, survival T/C
Assay: NCI In Vivo Anticancer Drug Screen. Data for tumor model P388 Leukemia (intraperitoneal) in CD2F1 (CDF1) mice
Settings: endpoint: median survival time, higher = longer survival
Summary of the method: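 Mice carrying the transplanted tumor received test compound or vehicle. Survival was recorded in each group, and the value is the treated-group measurement divided by that of the vehicle-treated control group.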

[1] = dose: 12.5 mg/kg/injection, schedule: Q01DX009 (ip), vehicle: saline
[2] = dose: 25.0 mg/kg/injection, schedule: Q01DX005 (ip), vehicle: saline
[3] = dose: 25.0 mg/kg/injection, schedule: Q01DX009 (ip), vehicle: saline
[4] = dose: 50.0 mg/kg/injection, schedule: Q01DX005 (ip), vehicle: saline
[5] = dose: 50.0 mg/kg/injection, schedule: Q01DX009 (ip), vehicle: saline
[6] = dose: 100.0 mg/kg/injection, schedule: Q01DX005 (ip), vehicle: saline
[7] = dose: 200.0 mg/kg/injection, schedule: Q01DX005 (ip), vehicle: saline
[8] = dose: 60.0 mg/kg/injection, schedule: Q01DX005 (ip), vehicle: saline with Tween-80
[9] = dose: 100.0 mg/kg/injection, schedule: Q01DX009 (ip), vehicle: saline with Tween-80
[10] = dose: 50.0 mg/kg/injection, schedule: Q01DX005 (ip), vehicle: Klucel (hydroxypropylcellulose) (HPC)
[11] = dose: 100.0 mg/kg/injection, schedule: Q01DX005 (ip), vehicle: Klucel (hydroxypropylcellulose) (HPC)

`Nc1ncn(C2OC(CO)C(O)C2O)c(=O)n1` (stereo not given) was tested, and the T/C (dose: 0.19 mg/kg/injection, schedule: Q01DX009 (ip), vehicle: saline with Tween-80) was 122 % of control, the T/C (dose: 0.38 mg/kg/injection, schedule: Q01DX009 (ip), vehicle: saline with Tween-80) was 154 % of control and the T/C (dose: 0.75 mg/kg/injection, schedule: Q01DX009 (ip), vehicle: Klucel (hydroxypropylcellulose) (HPC)) was 163 % of control. For the same compound, the T/C (dose: 0.75 mg/kg/injection, schedule: Q01DX009 (ip), vehicle: saline with Tween-80) was 181 % of control, the T/C (dose: 0.75 mg/kg/injection, schedule: Q01DX009 (ip), vehicle: saline) was 166 % of control and 172 % of control and 173 % of control and the T/C (dose: 1.0 mg/kg/injection, schedule: Q01DX005 (ip), vehicle: saline) was 172 % of control. For the same compound, the T/C (dose: 1.0 mg/kg/injection, schedule: Q01DX005 (ip), vehicle: water) was 150 % of control, the T/C (dose: 1.5 mg/kg/injection, schedule: Q01DX009 (ip), vehicle: Klucel (hydroxypropylcellulose) (HPC)) was 190 % of control and the T/C (dose: 1.5 mg/kg/injection, schedule: Q01DX009 (ip), vehicle: saline with Tween-80) was 195 % of control. The T/C (dose: 1.5 mg/kg/injection, schedule: Q01DX009 (ip), vehicle: saline) was 171 % of control and 185 % of control, the T/C (dose: 1.56 mg/kg/injection, schedule: Q01DX009 (ip), vehicle: saline) was 224 % of control and the T/C (dose: 2.0 mg/kg/injection, schedule: Q01DX005 (ip), vehicle: water) was 174 % of control. For the same compound, the T/C (dose: 2.0 mg/kg/injection, schedule: Q01DX009 (ip), vehicle: saline) was 209 % of control and 210 % of control, the T/C (dose: 2.59 mg/kg/injection, schedule: Q04DX003 (ip), vehicle: saline) was 162 % of control and the T/C (dose: 2.7 mg/kg/injection, schedule: Q01DX009 (ip), vehicle: saline) was 233 % of control. The T/C (dose: 3.0 mg/kg/injection, schedule: Q01DX009 (ip), vehicle: Klucel (hydroxypropylcellulose) (HPC)) was 245 % of control, the T/C (dose: 3.13 mg/kg/injection, schedule: Q01DX009 (ip), vehicle: saline) was 262 % of control and the T/C (dose: 4.0 mg/kg/injection, schedule: Q01DX005 (ip), vehicle: water) was 215 % of control. For the same compound, the T/C (dose: 4.0 mg/kg/injection, schedule: Q01DX009 (ip), vehicle: saline) was 245 % of control and 265 % of control, the T/C (dose: 4.32 mg/kg/injection, schedule: Q04DX003 (ip), vehicle: saline) was 178 % of control and the T/C (dose: 4.5 mg/kg/injection, schedule: Q01DX009 (ip), vehicle: saline) was 282 % of control. The T/C (dose: 6.0 mg/kg/injection, schedule: Q01DX009 (ip), vehicle: Klucel (hydroxypropylcellulose) (HPC)) was 95 % of control, the T/C (dose: 7.2 mg/kg/injection, schedule: Q04DX003 (ip), vehicle: saline) was 200 % of control and the T/C (dose: 8.0 mg/kg/injection, schedule: Q01DX005 (ip), vehicle: saline) was 252 % of control and 256 % of control and 290 % of control. The T/C (dose: 8.0 mg/kg/injection, schedule: Q01DX005 (ip), vehicle: water) was 66 % of control, the T/C (dose: 8.64 mg/kg/injection, schedule: Q04DX002 (ip), vehicle: saline) was 160 % of control and the T/C (dose: 12.0 mg/kg/injection, schedule: Q04DX003 (ip), vehicle: saline) was 247 % of control. The T/C (dose: 12.5 mg/kg/injection, schedule: Q01DX005 (ip), vehicle: saline) was 162 % of control, the T/C [1] was 196 % of control and the T/C (dose: 14.4 mg/kg/injection, schedule: Q04DX002 (ip), vehicle: saline) was 175 % of control. The T/C (dose: 16.0 mg/kg/injection, schedule: Q01DX005 (ip), vehicle: saline) was 273 % of control, the T/C (dose: 20.0 mg/kg/injection, schedule: Q01DX009 (ip), vehicle: saline) was 223 % of control and the T/C (dose: 20.0 mg/kg/injection, schedule: Q04DX003 (ip), vehicle: saline) was 279 % of control. The T/C (dose: 24.0 mg/kg/injection, schedule: Q04DX002 (ip), vehicle: saline) was 200 % of control, the T/C [2] was 176 % of control and the T/C [3] was 196 % of control. The T/C (dose: 33.0 mg/kg/injection, schedule: Q01DX009 (ip), vehicle: saline) was 233 % of control, the T/C (dose: 40.0 mg/kg/injection, schedule: Q04DX002 (ip), vehicle: saline) was 217 % of control and the T/C (dose: 44.0 mg/kg/injection, schedule: Q01DX005 (ip), vehicle: saline) was 178 % of control. For the same compound, the T/C (dose: 49.0 mg/kg/injection, schedule: Q01DX001 (ip), vehicle: saline) was 165 % of control, the T/C [4] was 189 % of control and the T/C [5] was 215 % of control. The T/C (dose: 67.0 mg/kg/injection, schedule: Q01DX005 (ip), vehicle: saline) was 181 % of control, the T/C [6] was 182 % of control and 196 % of control and the T/C (dose: 110.0 mg/kg/injection, schedule: Q01DX001 (ip), vehicle: saline) was 100 % of control. For the same compound, the T/C (dose: 150.0 mg/kg/injection, schedule: Q01DX005 (ip), vehicle: saline) was 187 % of control, the T/C [7] was 185 % of control and 214 % of control and the T/C (dose: 200.0 mg/kg/injection, schedule: Q01DX009 (ip), vehicle: saline) was 110 % of control. The T/C (dose: 400.0 mg/kg/injection, schedule: Q01DX009 (ip), vehicle: saline) was 88 % of control.
In the case of `CN1CCCOC(c2ccccc2)c2ccsc2CC1` (stereo not given), the T/C (dose: 7.5 mg/kg/injection, schedule: Q01DX005 (ip), vehicle: saline with Tween-80) is reported as 101 % of control, the T/C (dose: 15.0 mg/kg/injection, schedule: Q01DX005 (ip), vehicle: saline with Tween-80) is reported as 102 % of control and the T/C (dose: 30.0 mg/kg/injection, schedule: Q01DX005 (ip), vehicle: saline with Tween-80) is reported as 102 % of control. The T/C [8] was 101 % of control and 93 % of control.
For `CC(CNC(=O)CCOS(C)(=O)=O)CNC(=O)CCOS(C)(=O)=O`, the T/C (dose: 6.25 mg/kg/injection, schedule: Q01DX009 (ip), vehicle: saline) was 105 % of control, the T/C [1] was 106 % of control and the T/C [3] was 100 % of control. For the same compound, the T/C [5] was 102 % of control.
In the case of `CCc1ncnc2cc(OCC3CO3)c(OC)cc12` (stereo not given), the T/C (dose: 6.25 mg/kg/injection, schedule: Q01DX005 (ip), vehicle: saline) is reported as 114 % of control, the T/C [2] is reported as 155 % of control and 158 % of control and the T/C [4] is reported as 154 % of control and 158 % of control and 182 % of control.
For `COC1/C=C\OC2(C)Oc3c(C)c(O)c4c(O)c(c(CN(C)CCO)c(O)c4c3C2=O)NC(=O)/C(C)=C\C=C/C(C)C(O)C(C)C(O)C(C)C(OC(C)=O)C1C` (stereo not given), the T/C (dose: 12.5 mg/kg/injection, schedule: Q01DX009 (ip), vehicle: Klucel (hydroxypropylcellulose) (HPC)) was 86 % of control, the T/C (dose: 25.0 mg/kg/injection, schedule: Q01DX009 (ip), vehicle: Klucel (hydroxypropylcellulose) (HPC)) was 117 % of control and the T/C (dose: 50.0 mg/kg/injection, schedule: Q01DX009 (ip), vehicle: Klucel (hydroxypropylcellulose) (HPC)) was 118 % of control. For the same compound, the T/C (dose: 100.0 mg/kg/injection, schedule: Q01DX009 (ip), vehicle: Klucel (hydroxypropylcellulose) (HPC)) was 111 % of control, the T/C (dose: 200.0 mg/kg/injection, schedule: Q01DX009 (ip), vehicle: Klucel (hydroxypropylcellulose) (HPC)) was 104 % of control and the T/C (dose: 400.0 mg/kg/injection, schedule: Q01DX009 (ip), vehicle: Klucel (hydroxypropylcellulose) (HPC)) was 96 % of control.
With `COC(CCCNCCCC(OC)OC)OC` the T/C [4] was 102 % of control, the T/C [6] was 103 % of control and the T/C [7] was 103 % of control.
With `CCN1c2ccccc2S(=O)(=O)n2c(/C=C/c3ccc(OC)cc3)nnc21` the T/C (dose: 100.0 mg/kg/injection, schedule: Q01DX001 (ip), vehicle: saline with Tween-80) was 90 % of control and the T/C (dose: 200.0 mg/kg/injection, schedule: Q01DX001 (ip), vehicle: saline with Tween-80) was 88 % of control.
`Brc1ccc(-c2csc(Nc3nc(-c4ccc(Br)cc4)cs3)n2)cc1` was tested, and the T/C [9] was 95 % of control, the T/C (dose: 200.0 mg/kg/injection, schedule: Q01DX009 (ip), vehicle: saline with Tween-80) was 100 % of control and the T/C (dose: 400.0 mg/kg/injection, schedule: Q01DX009 (ip), vehicle: saline with Tween-80) was 104 % of control.
`O=C(NC(Cc1cnc[nH]1)C(=O)NC(Cc1ccc(O)cc1)C(=O)O)OCc1ccccc1` (stereo not drawn) (Cbz-His-Tyr-OH; configuration not given here) was tested, and the T/C [10] was 93 % of control, the T/C [11] was 95 % of control and the T/C (dose: 200.0 mg/kg/injection, schedule: Q01DX005 (ip), vehicle: Klucel (hydroxypropylcellulose) (HPC)) was 92 % of control.
With `COc1ccc2c(c1)C(=O)C[C@@H]1[C@](C)(C#N)CCC[C@]21C` the T/C [8] was 100 % of control, the T/C (dose: 120.0 mg/kg/injection, schedule: Q01DX005 (ip), vehicle: saline with Tween-80) was 94 % of control and the T/C (dose: 240.0 mg/kg/injection, schedule: Q01DX005 (ip), vehicle: saline with Tween-80) was 94 % of control.
`C=C(Br)CC(N)C(=O)O` (stereo not given) was tested, and the T/C [10] was 116 % of control and the T/C [11] was 106 % of control.
For `COC(CCl)(CBr)OC`, the T/C (dose: 25.0 mg/kg/injection, schedule: Q01DX009 (ip), vehicle: saline with Tween-80) was 95 % of control, the T/C (dose: 50.0 mg/kg/injection, schedule: Q01DX009 (ip), vehicle: saline with Tween-80) was 97 % of control and the T/C [9] was 105 % of control.
